Laboratory results taken from ChEMBL document CHEMBL6103613 (J Med Chem, 2025).
Converted amounts (≈) assume the structure as drawn. The source made the active and inactive calls. No cut-off for these calls is given here.

Tests used:
[1] = test system: Staphylococcus aureus; experiment: Antimicrobial activity against Staphylococcus aureus ATCC 25923 assessed as inhibition of visible bacterial growth incubated for 18 hrs by CLSI based analysis; format: functional
[2] = test system: Staphylococcus aureus; experiment: Antimicrobial activity against methicillin-resistant Staphylococcus aureus clinical isolate 2 assessed as inhibition of visible bacterial growth incubated for 18 hrs by CLSI based analysis; format: functional
[3] = test system: Bacillus subtilis; experiment: Antimicrobial activity against Bacillus subtilis ATCC 23875 assessed as inhibition of visible bacterial growth incubated for 18 hrs by CLSI based analysis; format: functional
[4] = test system: Enterococcus faecium; experiment: Antimicrobial activity against vancomycin-resistant Enterococcus faecium assessed as inhibition of visible bacterial growth incubated for 18 hrs by CLSI based analysis; format: functional
[5] = test system: Enterococcus gallinarum; experiment: Antimicrobial activity against Enterococcus gallinarum ATCC 49573 assessed as inhibition of visible bacterial growth incubated for 18 hrs by CLSI based analysis; format: functional
[6] = test system: Staphylococcus epidermidis; experiment: Antimicrobial activity against Staphylococcus epidermidis ATCC 12228 assessed as inhibition of visible bacterial growth incubated for 18 hrs by CLSI based analysis; format: functional
[7] = Therapeutic index, ratio of HC5 for hemolytic activity in mouse Red blood cell to MIC for antimicrobial activity against Staphylococcus aureus ATCC 25923 assessed as inhibition of visible bacterial growth; format: toxicity, cell-based, RBC; conditions: red blood cells, read-out: TI
[8] = test system: Candida albicans; experiment: Antifungal activity against Candida albicans assessed as reduction in fungal growth incubated for 18 hrs by CLSI based analysis; format: functional
[9] = test system: Staphylococcus aureus; experiment: Antimicrobial activity against Staphylococcus aureus assessed as reduction in bacterial growth at 2 times MIC incubated for 2 hrs by time-killing assay; format: functional; set-up: scale not given: the % may be the effect or the level left
[10] = test system: Staphylococcus aureus; experiment: Inhibition of biofilm formation in Staphylococcus aureus at 1 to 16 times MIC by hochest33342/PI staining based analysis; format: functional
[11] = test system: Staphylococcus aureus; experiment: Antibiofilm activity in Staphylococcus aureus assessed as biofilm eradication at 4 times MIC relative to control; format: functional
[12] = test system: Cell membrane; experiment: Induction of cell membrane depolarization in Staphylococcus aureus assessed as increase in fluorescence intensity at 1 to 8 times MIC by DiOC2 (3) dye based assay; format: subcellular
[13] = test system: Staphylococcus aureus; experiment: Antimicrobial activity against Staphylococcus aureus ATCC 25923 incubated for 1 hr in presence of PG; format: functional
[14] = test system: Staphylococcus aureus; experiment: Antimicrobial activity against Staphylococcus aureus ATCC 25923 incubated for 1 hr in presence of PGN; format: functional
[15] = test system: Peptidoglycan; experiment: Binding affinity to Staphylococcus aureus peptidoglycan assessed as dissociation constant by ITC analysis
[16] = test system: Staphylococcus aureus; experiment: Induction of ROS production in Staphylococcus aureus assessed as increase in fluorescence intensity at 2 times MIC by DCFH-DA probe based assay; format: functional, organism-based
[17] = test system: Staphylococcus aureus; experiment: Upregulation of thiol peroxidase expression in Staphylococcus aureus at 12.5 microg/ml incubated for 3 hrs by RNA sequencing analysis; format: functional, organism-based; conditions: dose 12.5 µg/ml
[18] = test system: Staphylococcus aureus; experiment: Upregulation of superoxide dismutase expression in Staphylococcus aureus at 12.5 microg/ml incubated for 3 hrs by RNA sequencing analysis; format: functional; conditions: dose 12.5 µg/ml
[19] = test system: Staphylococcus aureus; experiment: Upregulation of ahpF expression in Staphylococcus aureus at 12.5 microg/ml incubated for 3 hrs by RNA sequencing analysis; format: functional; conditions: dose 12.5 µg/ml
[20] = test system: Staphylococcus aureus; experiment: Upregulation of ahpC6 expression in Staphylococcus aureus at 12.5 microg/ml incubated for 3 hrs by RNA sequencing analysis; format: functional; conditions: dose 12.5 µg/ml
[21] = test system: Staphylococcus aureus; experiment: Upregulation of Mnh1 expression in Staphylococcus aureus at 12.5 microg/ml incubated for 3 hrs by RNA sequencing analysis; format: functional; conditions: dose 12.5 µg/ml
[22] = test system: Staphylococcus aureus; experiment: Upregulation of CwrA expression in Staphylococcus aureus at 12.5 microg/ml incubated for 3 hrs by RNA sequencing analysis; format: functional; conditions: dose 12.5 µg/ml
[23] = test system: Staphylococcus aureus; experiment: Upregulation of LiaF expression in Staphylococcus aureus at 12.5 microg/ml incubated for 3 hrs by RNA sequencing analysis; format: functional; conditions: dose 12.5 µg/ml
[24] = test system: Staphylococcus aureus; experiment: Upregulation of SgtB expression in Staphylococcus aureus at 12.5 microg/ml incubated for 3 hrs by RNA sequencing analysis; format: functional; conditions: dose 12.5 µg/ml
[25] = test system: Staphylococcus aureus; experiment: Upregulation of dltB expression in Staphylococcus aureus at 12.5 microg/ml incubated for 3 hrs by RNA sequencing analysis; format: functional; conditions: dose 12.5 µg/ml
[26] = test system: Staphylococcus aureus; experiment: Upregulation of dltD expression in Staphylococcus aureus at 12.5 microg/ml incubated for 3 hrs by RNA sequencing analysis; format: functional; conditions: dose 12.5 µg/ml
[27] = test system: Staphylococcus aureus; experiment: Upregulation of fmtA expression in Staphylococcus aureus at 12.5 microg/ml incubated for 3 hrs by RNA sequencing analysis; format: functional; conditions: dose 12.5 µg/ml
[28] = test system: Staphylococcus aureus; experiment: Antimicrobial activity against Staphylococcus aureus incubated for 0.5 hrs in presence of Mg+; format: functional, organism-based
[29] = test system: Staphylococcus aureus; experiment: Antimicrobial activity against Staphylococcus aureus incubated for 0.5 hrs in presence of Fe2+; format: functional, organism-based
[30] = test system: Staphylococcus aureus; experiment: Antimicrobial activity against Staphylococcus aureus incubated for 0.5 hrs in presence of Fe3+; format: functional, organism-based
[31] = Toxicity in mouse assessed as survival rate at 50 mg/kg, ip measured for 7 days; format: organism-based; conditions: in vivo, time 7 day
[32] = Toxicity in mouse assessed as change in behavior at 50 mg/kg, ip measured for 7 days; format: organism-based; conditions: in vivo, 168 h, time 7 day
[33] = Toxicity in mouse assessed as change in food intake at 50 mg/kg, ip measured for 7 days; format: organism-based; conditions: in vivo, 168 h, time 7 day
[34] = Toxicity in mouse assessed as change in bowel movement intake at 50 mg/kg, ip measured for 7 days; format: organism-based; conditions: in vivo, 168 h, time 7 day
[35] = Toxicity in mouse assessed as change in body weight gain at 50 mg/kg, ip measured for 7 days; format: organism-based; conditions: in vivo, 168 h, time 7 day
[36] = Toxicity in mouse assessed as heart damage at 50 mg/kg, ip measured for 7 days by H and E staining based analysis; format: organism-based; conditions: in vivo, 168 h, time 7 day
[37] = Toxicity in mouse assessed as spleen damage at 50 mg/kg, ip measured for 7 days by H and E staining based analysis; format: organism-based; conditions: in vivo, 168 h, time 7 day
[38] = Toxicity in mouse assessed as kidney damage at 50 mg/kg, ip measured for 7 days by H and E staining based analysis; format: organism-based; conditions: in vivo, 168 h, time 7 day
[39] = test system: Staphylococcus aureus; experiment: Antibacterial activity against methicillin-resistant Staphylococcus aureus infected in kunming mouse keratitis model measured upto 24 hrs; format: functional, organism-based
[40] = Toxicity in kunming mouse assessed as effect on lung morphology at 5 mg/kg, ip; format: organism-based; conditions: in vivo
[41] = test system: Staphylococcus aureus; experiment: Antibacterial activity against methicillin-resistant Staphylococcus aureus infected in kunming mouse pneumonia model assessed as reduction in colony count in lung at 5 mg/kg, ip measured upto 8 days; format: functional, organism-based; conditions: time <= 8.0 day
[42] = test system: Staphylococcus aureus; experiment: Antibacterial activity against methicillin-resistant Staphylococcus aureus infected in kunming mouse peritonitis model assessed as reduction in bacterial colonies in blood at 5 mg/kg, ip measured upto 8 days; format: functional, organism-based; conditions: time <= 8.0 day
[43] = test system: Staphylococcus aureus; experiment: Antibacterial activity against methicillin-resistant Staphylococcus aureus infected in kunming mouse peritonitis model assessed as reduction in bacterial colonies in lung at 5 mg/kg, ip measured upto 8 days; format: functional, organism-based; conditions: time <= 8.0 day
[44] = test system: Staphylococcus aureus; experiment: Antibacterial activity against methicillin-resistant Staphylococcus aureus infected in kunming mouse peritonitis model assessed as reduction in bacterial colonies in spleen at 5 mg/kg, ip measured upto 8 days; format: functional, organism-based; conditions: time <= 8.0 day
[45] = test system: Staphylococcus aureus; experiment: Antibacterial activity against methicillin-resistant Staphylococcus aureus infected in kunming mouse peritonitis model assessed as reduction in bacterial colonies in kidney at 5 mg/kg, ip measured upto 8 days; format: functional, organism-based; conditions: time <= 8.0 day
[46] = Toxicity in mouse assessed as organ damage by measuring thickened alveolar wall in lungs at 5 mg/kg, ip measured upto 8 days; format: organism-based; conditions: in vivo, 192 h, time < 8 day

## CC(C)[C@@H]1NC(=O)[C@@H](C(C)C)NC(=O)[C@H](C(C)C)NC(=O)[C@@H](CCCCN)NC(=O)[C@H](Cc2c(C(c3ccccc3)(c3ccccc3)c3ccccc3)[nH]c3ccccc23)NC(=O)[C@@H](C(C)C)NC(=O)[C@@H]2CSC1N2
[1]
  MIC: 6.25 µg/mL (≈ 6.01 µM)
[2]
  MIC: 6.25 µg/mL (≈ 6.01 µM)
[3]
  MIC: 6.25 µg/mL (≈ 6.01 µM)
[4]
  MIC: 12.5 µg/mL (≈ 12 µM)
[5]
  MIC: 12.5 µg/mL (≈ 12 µM)
[6]
  MIC: 6.25 µg/mL (≈ 6.01 µM)
[7]
  selectivity ratio: > 16
[8]
  MIC: 3.13 µg/mL (≈ 3.01 µM)
[9]
  Activity: >99%
[10]
  inhibition (INH): ~100%
[11]
  Activity: 40%
[12]
  Activity: Dose-dependent-effect
[13]
  MIC: > 50 µg/mL
[14]
  MIC: > 50 µg/mL
[15]
  Kd: 615 nM
[16]
  Activity: Active
[17]
  Activity: Active
[18]
  Activity: Active
[19]
  Activity: Active
[20]
  Activity: Active
[21]
  Activity: Active
[22]
  Activity: Active
[23]
  Activity: Active
[24]
  Activity: Active
[25]
  Activity: Active
[26]
  Activity: Active
[27]
  Activity: Active
[28]
  Activity: Active
[29]
  Activity: Active
[30]
  Activity: Active
[31]
  survival at 168 h: 100%
[32]
  Activity: Non-toxic
[33]
  Activity: Non-toxic
[34]
  Activity: Non-toxic
[35]
  Activity: Non-toxic
[36]
  Activity: Non-toxic
[37]
  Activity: Non-toxic
[38]
  Activity: Non-toxic
[39]
  Activity: Active
[40]
  Activity: Non-toxic
[41]
  Activity: Active
[42]
  Activity: Active
[43]
  Activity: Active
[44]
  Activity: Active
[45]
  Activity: Active
[46]
  Activity: Non-toxic
